Columns and labels:
[1] = biological target: T1, Amine oxidase [flavin-containing] A (Homo sapiens, UniProt P21397); assay: Inhibition of human MAO-A using kynuramine as substrate by fluorometric assay
T1 sequence (P21397 whole entry): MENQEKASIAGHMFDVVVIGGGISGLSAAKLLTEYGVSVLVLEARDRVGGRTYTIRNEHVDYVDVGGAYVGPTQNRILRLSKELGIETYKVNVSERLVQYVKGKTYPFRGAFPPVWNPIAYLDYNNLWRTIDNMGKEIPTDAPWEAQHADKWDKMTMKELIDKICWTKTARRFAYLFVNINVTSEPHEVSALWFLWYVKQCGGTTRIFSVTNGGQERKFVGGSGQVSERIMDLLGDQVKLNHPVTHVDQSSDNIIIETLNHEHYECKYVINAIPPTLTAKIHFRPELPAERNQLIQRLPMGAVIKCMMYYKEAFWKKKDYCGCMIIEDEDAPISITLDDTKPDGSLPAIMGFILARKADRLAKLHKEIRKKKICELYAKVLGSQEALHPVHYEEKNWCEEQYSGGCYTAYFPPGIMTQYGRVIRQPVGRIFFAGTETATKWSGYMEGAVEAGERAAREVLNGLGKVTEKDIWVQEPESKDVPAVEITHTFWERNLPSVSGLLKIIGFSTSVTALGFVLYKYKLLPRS

[2] = organism: Homo sapiens; assay: Selectivity index, ratio of IC50 for inhibition of human MAO-B using benzylamine as substrate to IC50 for inhibition of human MAO-A using kynuramine as substrate
[3] = biological target: T2, Amine oxidase [flavin-containing] B (Homo sapiens, UniProt P27338); assay: Inhibition of human MAO-B using benzylamine as substrate by fluorometric assay
T2 sequence (P27338 whole entry): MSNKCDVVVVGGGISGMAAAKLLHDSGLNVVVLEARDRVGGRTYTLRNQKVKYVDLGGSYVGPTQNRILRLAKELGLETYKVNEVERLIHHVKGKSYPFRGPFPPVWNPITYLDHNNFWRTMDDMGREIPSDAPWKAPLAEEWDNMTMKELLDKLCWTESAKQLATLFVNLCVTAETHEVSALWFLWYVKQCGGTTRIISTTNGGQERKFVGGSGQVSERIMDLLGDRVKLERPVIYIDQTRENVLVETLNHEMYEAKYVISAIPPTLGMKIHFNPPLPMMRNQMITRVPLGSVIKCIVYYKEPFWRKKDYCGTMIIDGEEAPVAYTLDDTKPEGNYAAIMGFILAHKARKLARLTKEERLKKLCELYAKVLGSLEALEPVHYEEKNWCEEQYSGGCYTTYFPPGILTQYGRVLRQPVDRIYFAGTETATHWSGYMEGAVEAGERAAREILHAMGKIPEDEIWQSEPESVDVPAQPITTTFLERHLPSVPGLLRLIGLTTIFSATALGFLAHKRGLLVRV

[4] = tested on: PC-12; assay: Neuroprotective activity against rotenone-induced cytotoxicity in rat PC12 cells assessed as increase in cell viability at 16 microg/ml by MTT assay; format: functional; settings: dose 16 µg/ml
[5] = biological target: T1, Amine oxidase [flavin-containing] A; assay: Inhibition of MAO-A (unknown origin)
[6] = biological target: T2, Amine oxidase [flavin-containing] B; assay: Inhibition of MAO-B (unknown origin)
[7] = tested on: SH-SY5Y; assay: Cytotoxicity against human SH-SY5Y cells by MTT assay; format: functional, cell-based
[8] = biological target: T1, Amine oxidase [flavin-containing] A; assay: Mixed type inhibition of human MAO-A by lineweaver-burk plot analysis

Row | SMILES | IC50 [1] | Ratio IC50 [2] | IC50 [3] | other results
1 | C=CCN1C(=O)S/C(=C\c2ccc(N3CCN(c4ccc(F)cc4)CC3)cc2)C1=O | 1480 nM | 0.22 | 330 nM | 
2 | C=CCN1C(=O)S/C(=C\c2ccc(N3CCN(c4ccccc4)CC3)cc2)C1=O | 5700 nM | > 2.66 | > 10000 nM | 
3 | C#CCN1C(=O)S/C(=C\c2ccc(N3CCN(c4ccccc4)CC3)cc2)C1=O | 1490 nM | 2.02 | 3010 nM | 
4 | C#CCN[C@@H]1CCc2ccccc21 [RASAGILINE] |  |  |  | Activity [4]: 69.75%
5 | OCc1ccc(N2CCN(c3cccc(Cl)c3)CC2)cc1 |  |  |  | IC50 [5]: 90 nM
6 | CC(C)(C)c1ccc(S(=O)(=O)c2ccc(N3CCN(C(c4ccccc4)c4ccccc4)CC3)cc2)cc1 |  |  |  | IC50 [6]: 610 nM
7 | CCOc1ccccc1N1CCN(c2ccc(/C=C3\SC(=O)NC3=O)cc2)CC1 | 1360 nM | 2 | 2730 nM | 
8 | C#CCN1C(=O)S/C(=C\c2ccc(N3CCN(c4ccc(F)cc4)CC3)cc2)C1=O | 381 nM | 3.57 | 1360 nM | 
9 | O=C1S/C(=C\c2ccc(N3CCN(c4ccccc4)CC3)cc2)C(=O)N1Cc1ccccc1 | 194 nM | 3.36 | 652 nM | 
10 | CCOc1ccccc1N1CCN(c2ccc(/C=C3\SC(=O)N(Cc4ccccc4)C3=O)cc2)CC1 | 502 nM | 2.11 | 1060 nM | 
11 | CN1CCN(c2ccc(/C=N/Nc3nc(-c4ccc([N+](=O)[O-])cc4)cs3)cc2)CC1 |  |  |  | IC50 [5]: 57 nM
12 | C#CCN1C(=O)S/C(=C\c2ccc(N3CCN(c4ccccc4OCC)CC3)cc2)C1=O | 218 nM | 7.96 | 1740 nM | 
13 | COc1ccc(N2CCN(Cc3nnc(SCC(=O)c4ccc(Cl)cc4)n3C)CC2)cc1 |  |  |  | IC50 [5]: 70 nM; IC50 [6]: 70 nM
14 | O=C1S/C(=C\c2ccc(N3CCN(c4ccc(F)cc4)CC3)cc2)C(=O)N1Cc1ccccc1 | 188 nM |  | 479 nM | Activity [4]: 73.16%; IC50 [7]: 94600 nM; Ki [8]: 3.4 nM
15 | C=CCN1C(=O)S/C(=C\c2ccc(N3CCN(c4ccccc4OCC)CC3)cc2)C1=O | 812 nM | 6.87 | 5580 nM | 

Continued, in another order:

Row | IC50 [1] | Ratio IC50 [2] | IC50 [3] | SMILES | other results
16 | 405 nM | 16.6 | 6730 nM | O=C1NC(=O)/C(=C/c2ccc(N3CCN(c4ccccc4)CC3)cc2)S1 | 
17 | 1430 nM | 0.49 | 705 nM | C#CCN1C(=O)S/C(=C\c2ccc(N3CCN(C4CCCCC4)CC3)cc2)C1=O | 
18 | 518 nM | 5.28 | 2740 nM | O=C1S/C(=C\c2ccc(N3CCN(C4CCCCC4)CC3)cc2)C(=O)N1Cc1ccccc1 | 
19 | 1730 nM | > 5.79 | > 10000 nM | C=CCN1C(=O)S/C(=C\c2ccc(N3CCN(C4CCCCC4)CC3)cc2)C1=O | 
20 | 2520 nM | 2.83 | 7130 nM | O=C1NC(=O)/C(=C/c2ccc(N3CCN(c4ccc(F)cc4)CC3)cc2)S1 | 
21 | 3150 nM | 2.85 | 8980 nM | O=C1NC(=O)/C(=C/c2ccc(N3CCN(C4CCCCC4)CC3)cc2)S1 | 
